Patent US20240368194A1, “IRAK4 DEGRADATION AGENT, AND PREPARATION METHOD THEREFOR AND USE THEREOF” (SHANGHAI LEADINGTAC PHARMACEUTICAL CO. LTD., priority 2021, published 2024)
pIC50: −log10 of the molar value.

Assays:
IRAK4 kinase = IRAK4 kinase (Homo sapiens (Human), UniProt Q9NWZ3); experiment: IRAK4 kinase activity test (KinEASE-STK S1 HTRF kit); assay type: biochemical; details: 2.5 nM IRAK4 kinase, 7 μM ATP, 37° C. 120 min
Method: Then 2.5 nM 1RAK4 kinase (Carna), 1 μM biotinylated polypeptide substrate (Cisbio) and 7 μM adenosine triphosphate (Sigma-Aldrich) were sequentially added, and the mixtures were incubated at 37° C. for 120 min. Subsequently, an anti-phosphoserine/threonine antibody (Cisbio) conjugated with a europium element compound and conjugated modified XL665 streptavidin (Cisbio) were added to the reaction systems to stop the reactions. After 1 h of incubation at room temperature, the fluorescence intensity of each well was measured at the excitation wavelength of 337 nm and the emission wavelengths of 620 nm and 665 nm with a microplate reader EnVision (PerkinElmer) in the HTRF mode, and Ratio values were calculated using the formula Ratio=(665 nm/620 nm)×[…]. The inhibition rate of the compound at each concentration was calculated by comparing the fluorescence intensity ratio with that of the control group. Then a non-linear curve fitting of logarithmic concentration-inhibition rate was performed using GraphPad Prism 7, and the IC50 value of the compound was obtained.

[1] = target: IRAK4 protein in THP-1 cells (Homo sapiens (Human), UniProt Q9NWZ3); experiment: Degradation of IRAK4 in THP-1 cells, human IRAK4 AlphaLISA assay; assay type: cell-based; details: 24 h incubation
IRAK4 protein in THP-1 cells, sequence (Q9NWZ3 whole entry): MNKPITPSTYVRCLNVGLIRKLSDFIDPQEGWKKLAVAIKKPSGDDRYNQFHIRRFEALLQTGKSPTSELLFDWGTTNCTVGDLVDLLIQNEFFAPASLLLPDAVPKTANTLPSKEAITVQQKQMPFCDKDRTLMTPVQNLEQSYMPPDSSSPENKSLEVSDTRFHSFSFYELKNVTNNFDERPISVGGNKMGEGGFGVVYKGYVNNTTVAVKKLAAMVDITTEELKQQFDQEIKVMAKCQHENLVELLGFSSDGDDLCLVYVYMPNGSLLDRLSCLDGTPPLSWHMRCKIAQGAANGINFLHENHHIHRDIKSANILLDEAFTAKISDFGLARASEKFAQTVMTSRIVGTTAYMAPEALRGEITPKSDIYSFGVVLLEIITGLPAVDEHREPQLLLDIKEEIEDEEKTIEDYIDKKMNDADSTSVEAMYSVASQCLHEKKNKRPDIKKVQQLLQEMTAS
Method: THP-1 cells (Stem Cell Bank, Chinese Academy of Sciences) were inoculated onto a 24-well cell culture plate at 0.95 mL/well, with a cell density of 5×10^5 cells/well. The cell plate was incubated overnight in a 37° C., 5% carbon dioxide incubator, and 50 μL of a solution of a compound in dimethyl sulfoxide was added, such that the final concentration of the compound fell within the range of 0.03-3000 nM. After another 24 h of incubation, cells were collected into 1.5 mL centrifuge tubes and centrifuged at 1000 rpm at 4° C. for 5 min. The cell pellets were washed twice with 1×DPBS. The resuspended cells were lysed with 200 μL of lysis buffer (Western and IP cell lysis buffer (Beyotime), supplemented with 1 mM phenylmethylsulfonyl fluoride and protease inhibitor cocktail (Beyotime)), left to stand on ice for 30 mini, and then centrifuged at 14,000 g at 4° C. for 10 min. The supernatant samples were assayed by Western Blot for IRAK4 protein levels.
The above cell lysates were also tested for IRAK4 degradation using a human IRAK4 AlphaLISA assay kit (PerkinElmer, AL3117C). The method is specifically as follows: 2-μL test samples of cell lysate supernatant were transferred to a white 384-well plate (PerkinElmer, 6007299), and 4 μL of 5× anti-IRAK4 receptor beads (PerkinElmer, final concentration of 10 μg/mL) was then added. The plate was incubated at 23° C. for 30 min. Then 4 μL of 5× biotin-labeled anti-IRAK4 antibody (PerkinElmer, final concentration of 1 nM) was added, and the plate was incubated at 23° C. for 60 min. Finally, 10 μL of 2′ streptavidin-labeled donor beads (final concentration of 40 μg/mL) was added to each well, and the plate was incubated in the dark at 23° C. for 30 min. After the incubation was complete, AlphaLISA signal values were measured on a microplate reader EnVision (PerkinElmer, 2105) in the AlphaScreen standard mode, and IRAK4 concentrations were calculated from these signal values. Then a non-linear curve fitting of logarithmic concentration-inhibition rate was performed using GraphPad Prism 7, and the DC50 and Dmax values of the compound were obtained.

IRAK4 kinase, sequence (Q9NWZ3 whole entry): as above

SMILES | pIC50 (IRAK4 kinase) | DC50 [1] [nM] | Dmax [1] [%]
COc1ccc(C(=O)N2CCC3(CCC(CN4CCC(n5cc(NC(=O)c6cnn7ccc(N8C[C@H]9C[C@@H]8CO9)nc67)c(C(F)F)n5)CC4)CC3)CC2)cc1N1CCC(=O)NC1=O [Example 13, 5-((1R,4R)-2-oxa-5-azabicyclo[2.2.1]heptan-5-yl)-N-(3-(difluoromethyl)-1-(1-((3-(3-(2,4-dioxotetrahydropyrimidin-1(2H)-yl)-4-methoxybenzoyl)-3-azaspiro[5.5]undecan-9-yl)methyl)piperidin-4-yl)-1H-pyrazol-4-yl)pyrazolo[1,5-a]pyrimidine-3-carboxamide] | 7.71 | 5.5 | 84.4
O=C1CCN(c2cc(C(=O)N3CCC4(CCC(CN5CCC(n6cc(NC(=O)c7cnn8ccc(N9CCOCC9)nc78)c(C(F)F)n6)CC5)CC4)CC3)ccc2Cl)C(=O)N1 [Example 15, N-(1-(1-((3-(4-chloro-3-(2,4-dioxotetrahydropyrimidin-1(2H)-yl)benzoyl)-3-azaspiro[5.5]undecan-9-yl)methyl)piperidin-4-yl)-3-(difluoromethyl)-1H-pyrazol-4-yl)-5-morpholinopyrazolo[1,5-a]pyrimidine-3-carboxamide] | 7.85 | 2.5 | 92.1
COc1ccc(C(=O)N2CCC3(CCC(CN4CCC(n5cc(NC(=O)c6cnn7ccc(N8CC9CCC(C8)O9)nc67)c(C(F)F)n5)CC4)CC3)CC2)cc1N1CCC(=O)NC1=O [Example 16, 5-(8-oxa-3-azabicyclo[3.2.1]octan-3-yl)-N-(3-(difluoromethyl)-1-(1-((3-(3-(2,4-dioxotetrahydropyrimidin-1(2H)-yl)-4-methoxybenzoyl)-3-azaspiro[5.5]undecan-9-yl)methyl)piperidin-4-yl)-1H-pyrazol-4-yl)pyrazolo[1,5-a]pyrimidine-3-carboxamide] | 8.06 | 6.4 | 87.9
O=C1CCN(c2cc(C(=O)N3CCC(COCCN4CCC(n5cc(NC(=O)c6cnn7ccc(N8C[C@H]9C[C@@H]8CO9)nc67)c(C(F)F)n5)CC4)CC3)ccc2Cl)C(=O)N1 [Example 18, 5-((1R,4R)-2-oxa-5-azabicyclo[2.2.1]heptan-5-yl)-N-(1-(1-(2-((1-(4-chloro-3-(2,4-dioxotetrahydropyrimidin-1(2H)-yl)benzoyl)piperidin-4-yl)methoxy)ethyl)piperidin-4-yl)-3-(difluoromethyl)-1H-pyrazol-4-yl)pyrazolo[1,5-a]pyrimidine-3-carboxamide] | 7.17 | 54.3 | 62.5
O=C1CCN(c2cc(C(=O)N3CCC4(CCC(CN5CCC(n6cc(NC(=O)c7cnn8ccc(N9CCNCC9)nc78)c(C(F)F)n6)CC5)CC4)CC3)ccc2Cl)C(=O)N1 [Example 19, N-(1-(1-((3-(4-chloro-3-(2,4-dioxotetrahydropyrimidin-1(2H)-yl)benzoyl)-3-azaspiro[5.5]undecan-9-yl)methyl)piperidin-4-yl)-3-(difluoromethyl)-1H-pyrazol-4-yl)-5-(piperazin-1-yl)pyrazolo[1,5-a]pyrimidine-3-carboxamide] | 8.42 | 5.1 | 97.7
CN(CCN1CCC(n2cc(NC(=O)c3cnn4ccc(N5C[C@H]6C[C@@H]5CO6)nc34)c(C(F)F)n2)CC1)CC1CCN(C(=O)c2ccc(Cl)c(N3CCC(=O)NC3=O)c2)CC1 [Example 20, 5-((1R,4R)-2-oxa-5-azabicyclo[2.2.1]heptan-5-yl)-N-(1-(1-(2-(((1-(4-chloro-3-(2,4-dioxotetrahydropyrimidin-1(2H)-yl)benzoyl)piperidin-4-yl)methyl)(methyl)amino)ethyl)piperidin-4-yl)-3-(difluoromethyl)-1H-pyrazol-4-yl)pyrazolo[1,5-a]pyrimidine-3-carboxamide] | 7.05 | 78.6 | 87
O=C1CCN(c2cc(C(=O)N3CCC(CCCCN4CCC(n5cc(NC(=O)c6cnn7ccc(N8C[C@H]9C[C@@H]8CO9)nc67)c(C(F)F)n5)CC4)CC3)ccc2Cl)C(=O)N1 [Example 21, 5-((1R,4R)-2-oxa-5-azabicyclo[2.2.1]heptan-5-yl)-N-(1-(1-(4-(1-(4-chloro-3-(2,4-dioxotetrahydropyrimidin-1(2H)-yl)benzoyl)piperidin-4-yl)butyl)piperidin-4-yl)-3-(difluoromethyl)-1H-pyrazol-4-yl)pyrazolo[1,5-a]pyrimidine-3-carboxamide] | 8.00 | 9.6 | 95.5
O=C1CCN(c2cc(C(=O)N3CCC(OCCCN4CCC(n5cc(NC(=O)c6cnn7ccc(N8C[C@H]9C[C@@H]8CO9)nc67)c(C(F)F)n5)CC4)CC3)ccc2Cl)C(=O)N1 [Example 23, 5-((1R,4R)-2-oxa-5-azabicyclo[2.2.1]heptan-5-yl)-N-(1-(1-(3-((1-(4-chloro-3-(2,4-dioxotetrahydropyrimidin-1(2H)-yl)benzoyl)piperidin-4-yl)oxy)propyl)piperidin-4-yl)-3-(difluoromethyl)-1H-pyrazol-4-yl)pyrazolo[1,5-a]pyrimidine-3-carboxamide] | 7.64 | 10.1 | 93.7
O=C1CCN(c2cc(C(=O)N3CCC4(CCC(CN5CCC(n6cc(NC(=O)c7cnn8ccc(N9CCOCC9)nc78)c(C(F)F)n6)CC5)CC4)CC3)ccc2F)C(=O)N1 [Example 24, N-(3-(difluoromethyl)-1-(1-((3-(3-(2,4-dioxotetrahydropyrimidin-1(2H)-yl)-4-fluorobenzoyl)-3-azaspiro[5.5]undecan-9-yl)methyl)piperidin-4-yl)-1H-pyrazol-4-yl)-5-morpholinopyrazolo[1,5-a]pyrimidine-3-carboxamide] | 8.22 | 6.16 | 96.3
O=C1CCN(c2cc(C(=O)N3CCC4(CCC(CN5CCC(n6cc(NC(=O)c7cnn8ccc(N9CCOCC9)nc78)c(C(F)F)n6)CC5)CC4)CC3)ccc2C(F)(F)F)C(=O)N1 [Example 25, N-(3-(difluoromethyl)-1-(1-((3-(3-(2,4-dioxotetrahydropyrimidin-1(2H)-yl)-4-(trifluoromethyl)benzoyl)-3-azaspiro[5.5]undecan-9-yl)methyl)piperidin-4-yl)-1H-pyrazol-4-yl)-5-morpholinopyrazolo[1,5-a]pyrimidine-3-carboxamide] | 7.85 | 62.1 | 97.8
COc1ccc(C(=O)N2CCC3(CCC(CCN4CCC(n5cc(NC(=O)c6cnn7ccc(N8CCOCC8)nc67)c(C(F)F)n5)CC4)CC3)CC2)cc1N1CCC(=O)NC1=O [Example 28, N-(3-(difluoromethyl)-1-(1-(2-(3-(3-(2,4-dioxotetrahydropyrimidin-1(2H)-yl)-4-methoxybenzoyl)-3-azaspiro[5.5]undecan-9-yl)ethyl)piperidin-4-yl)-1H-pyrazol-4-yl)-5-morpholinopyrazolo[1,5-a]pyrimidine-3-carboxamide] | 7.89 | 3.18 | 89.4
Cc1ccc(C(=O)N2CCC3(CCC(CN4CCC(n5cc(NC(=O)c6cnn7ccc(N8CCOCC8)nc67)c(C(F)F)n5)CC4)CC3)CC2)cc1N1CCC(=O)NC1=O [Example 34, N-(3-(difluoromethyl)-1-(1-((3-(3-(2,4-dioxotetrahydropyrimidin-1(2H)-yl)-4-methylbenzoyl)-3-azaspiro[5.5]undecan-9-yl)methyl)piperidin-4-yl)-1H-pyrazol-4-yl)-5-morpholinopyrazolo[1,5-a]pyrimidine-3-carboxamide] | 7.96 | 3.55 | 87.1
